Results as given in patent US5304540A, “Pharmaceutical bacteriocin compositions and methods for using the same” (Applied Microbiology, Inc., priority 1993, dated 1994).
Read-outs that look alike come from different tables or passages of the source.

Tests used:
Escherichia coli = test: Germicidal suspension assay, E. coli; assay type: cell-based; conditions: for % survival at 1 min: 37° C.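 On all read-outs here: surviving cells were scored as colonies on nutrient agar after 24 h at 37° C, survival given as percent of untreated controls.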
Experimental: E. coli cells from an overnight Trypticase soy nutrient agar (TSA) were resuspended to a density measured as an absorbance of 1.0 at 600 nm in sterile ddH2 O. The reaction of the cells with each of the bactericidal test formulations analyzed was started by addition of 30 μl of cells to 970 μl of test formulation. The reaction mixture was incubated at 37° C for at least 1 minute and then centrifuged in a microfuge for 1 minute. The cell pellet was washed by resuspension in 1 ml of neutralization buffer. (The neutralization buffer: 50 mM Tris-HCl, pH 7.0, 5 mM MgSO4, 20 mM CaCl2, 0.1 M NaCl and 0.1% gelatin was prepared by first making Tris buffer and adjusting the pH. The salts and gelatin were then added and the solution stirred with heat until the solution was clear. The solution was then autoclaved for 20 min. The neutralization buffer was used without dilution.) The cells were centrifuged in a microfuge for 1 minute and resuspended in 1 ml of neutralization buffer. The viable count was determined by spreading 100 μl of bacterial suspension and serial dilutions thereof in neutralization buffer on nutrient agar and scoring surviving colonies after 24 h at 37° C. Percent survival relative to untreated controls was calculated from the scored values.

E. coli strain ATCC8739 = test: Nisin-citrate agar growth inhibition assay; assay type: cell-based, Escherichia coli
Experimental: The nisin-citrate agar assay is performed as follows. E. coli is resuspended to an optical density of 1.0 at A600. A 100 μl sample of the bacterial suspension is spread uniformly on Trypticase Soy nutrient agar (TSA) supplemented with various concentrations of citrate (e.g. 0.1%, 0.3%, 1.0%, 3.0%) and incubated for 1 hour at 37° C. A nisin stock solution and serial dilutions thereof in 0.1% bovine serum albumin (BSA), are prepared and 5 μl are taken from each and deposited onto the growing bacterial lawn. The TSA plates are then incubated for 24 hours at 37° C. After 24 hours at 37° C., E. coli grown on TSA supplemented with citrate form a confluent lawn. […] The effectiveness of nisin against the gram negative bacteria can be assessed from determining the minimum amount of nisin required to produce a clear zone of growth inhibition. As the concentration of citrate in the nutrient agar is increased, less nisin is required to inhibit the growth of E. coli, as is illustrated by the data shown in Table 6.

nisin
% survival at 1 min (Escherichia coli; 0.1% w/v acetate pH 3.5, nisin 100 μg/ml and/or EDTA 1.0 mM where present, initial 2 × 10^7 cfu/ml): 9.6% | % survival at 1 min (Escherichia coli; 0.1% w/v lactate pH 3.5, nisin 100 μg/ml and/or EDTA 1.0 mM where present, initial 5 × 10^7 cfu/ml): 4.4% | % survival at 1 min (Escherichia coli; 0.1% w/v succinate pH 3.5, nisin 100 μg/ml and/or EDTA 1.0 mM where present, initial 3.4 × 10^6 cfu/ml): 18.3% | % survival at 1 min (Escherichia coli; 0.3% w/v acetate pH 3.5, nisin 100 μg/ml and/or EDTA 1.0 mM where present, initial 2 × 10^7 cfu/ml): 70% | % survival at 1 min (Escherichia coli; 0.3% w/v lactate pH 3.5, nisin 100 μg/ml and/or EDTA 1.0 mM where present, initial 5 × 10^7 cfu/ml): 0.24% | % survival at 1 min (Escherichia coli; 0.3% w/v succinate pH 3.5, nisin 100 μg/ml and/or EDTA 1.0 mM where present, initial 3.4 × 10^6 cfu/ml): 66.6% | % survival at 1 min (Escherichia coli; 1.0% w/v acetate pH 3.5, nisin 100 μg/ml and/or EDTA 1.0 mM where present, initial 2 × 10^7 cfu/ml): 100% | % survival at 1 min (Escherichia coli; 1.0% w/v lactate pH 3.5, nisin 100 μg/ml and/or EDTA 1.0 mM where present, initial 5 × 10^7 cfu/ml): 17.8% | % survival at 1 min (Escherichia coli; 1.0% w/v succinate pH 3.5, nisin 100 μg/ml and/or EDTA 1.0 mM where present, initial 3.4 × 10^6 cfu/ml): 83.4% | % survival at 1 min (Escherichia coli; 3.0% w/v acetate pH 3.5, nisin 100 μg/ml and/or EDTA 1.0 mM where present, initial 2 × 10^7 cfu/ml): 100% | % survival at 1 min (Escherichia coli; 3.0% w/v lactate pH 3.5, nisin 100 μg/ml and/or EDTA 1.0 mM where present, initial 5 × 10^7 cfu/ml): 26.7% | % survival at 1 min (Escherichia coli; 3.0% w/v succinate pH 3.5, nisin 100 μg/ml and/or EDTA 1.0 mM where present, initial 3.4 × 10^6 cfu/ml): 28.4% | survival of E. coli on exposure to the agent by itself (Escherichia coli; agent by itself): unaffected | % survival at 1 min (Escherichia coli; pH 2.0, 20 mM Na acetate buffer, nisin 100 μg/ml and/or EDTA 1.0 mM, initial 4 × 10^7 cfu/ml): 0.28% | % survival at 1 min (Escherichia coli; pH 2.5, 20 mM Na acetate buffer, nisin 100 μg/ml and/or EDTA 1.0 mM, initial 4 × 10^7 cfu/ml): 3.37% | % survival at 1 min (Escherichia coli; pH 3.0, 20 mM Na acetate buffer, nisin 100 μg/ml and/or EDTA 1.0 mM, initial 4 × 10^7 cfu/ml): 4.43% | % survival at 1 min (Escherichia coli; pH 3.5, 20 mM Na acetate buffer, nisin 100 μg/ml and/or EDTA 1.0 mM, initial 4 × 10^7 cfu/ml): 100% | % survival at 1 min (Escherichia coli; pH 4.0, 20 mM Na acetate buffer, nisin 100 μg/ml and/or EDTA 1.0 mM, initial 4 × 10^7 cfu/ml): 100% | Nisin NIC (nominal inhibitory concentration of nisin minimally required to prevent growth) (E. coli strain ATCC8739; Trypticase Soy Agar supplemented with 0.1% citrate): 370 µg/mL | Nisin NIC (nominal inhibitory concentration of nisin minimally required to prevent growth) (E. coli strain ATCC8739; Trypticase Soy Agar supplemented with 0.3% citrate): 123 µg/mL | Nisin NIC (nominal inhibitory concentration of nisin minimally required to prevent growth) (E. coli strain ATCC8739; Trypticase Soy Agar supplemented with 1.0% citrate): 13.7 µg/mL | Nisin NIC (nominal inhibitory concentration of nisin minimally required to prevent growth) (E. coli strain ATCC8739; Trypticase Soy Agar supplemented with 3.0% citrate): 0.06 µg/mL | Nisin NIC (nominal inhibitory concentration of nisin minimally required to prevent growth) (E. coli strain ATCC8739; Trypticase Soy Agar, 0% citrate): 3,333 μg/ml | % survival at 5 min (Helicobacter pylori; pH 7): 5.88 | % survival at 5 min (Helicobacter pylori; strain ATCC43504, pH 5.0, citrate 0, nisin 100 μg/ml, second of two experiments (initial 3.26 × 10^5 cfu/ml)): 0.043% | % survival at 5 min (Helicobacter pylori; strain ATCC43504, pH 7.0, citrate 0, nisin 100 μg/ml, initial 9.62 × 10^4 cfu/ml): 2.08% | % survival at 5 min (Helicobacter pylori; strain ATCC43579, citrate 0, nisin 100 μg/ml, pH 5.0, average of 5 experiments): 0.30% | % survival at 5 min (Helicobacter pylori; strain ATCC43579, pH 5.0, citrate 0, nisin 100 μg/ml, 37° C., initial 1.04 × 10^4 cfu/ml): 9.62% | % survival at 5 min (Helicobacter pylori; strain ATCC43579, pH 5.0, nisin 10 μg/ml, citrate 0.1% where present, 37° C.): 1.31% | % survival at 5 min (Helicobacter pylori; strain ATCC43579, pH 5.0, nisin 30 μg/ml, citrate 0.1% where present, 37° C.): 0.39% | % survival at 5 min (Helicobacter pylori; strain ATCC43579, pH 5.0, nisin 100 μg/ml, citrate 0.1% where present, 37° C.): 0.085% | % survival at 5 min (Helicobacter pylori; strain ATCC43579, pH 5.0, nisin 300 μg/ml, citrate 0.1% where present, 37° C.): 0.0056% | % survival at 5 min (Helicobacter pylori; strain ATCC43579, pH 7.0, citrate 0, nisin 100 μg/ml, 37° C.): 0.78%
